From patent US20070179295A1, “Triazolopyrimidines” (priority 2003, published 2007)

Experiment: logP determination through HPLC (EEC directive 79/831 Annex V. A8, gradient method, acetonitrile/0.1% aqueous phosphoric acid)
Format: physicochemical
Settings: HPLC

chromatographic logP | SMILES
2.73 | FC(F)(F)c1cccnc1-c1c(Cl)nc2nc(C3CC3)nn2c1Cl [Example 114]
1.58 | Cc1nc2nc(Cl)c(-c3ncncc3Cl)c(Cl)n2n1 [Example 115, 5,7-dichloro-6-(5-chloro-4-pyrimidinyl)-2-methyl[1,2,4]-triazolo[1,5-a]pyrimidine]
0.47 | Oc1nc2nc(C3CC3)nn2c(O)c1-c1ncccc1C(F)(F)F [Example 124, 6-(3-trifluoromethyl-pyridin-2-yl)-2-cyclopropyl[1,2,4]triazolo[1,5-a]-pyrimidin-5,7-diol]

Same assay, conditions: Table 1, compounds of formula (I); HPLC gradient method, acetonitrile/0.1% aqueous phosphoric acid

logP | SMILES
3.26 | CC1CN(c2c(-c3ccsc3)c(Cl)nc3nc(C4CC4)nn23)CC(C)O1 (stereo not drawn) [Example 67]
5.42 | CC(C)CC(C)Nc1c(-c2cc(Cl)sc2Cl)c(Cl)nc2nc(C3CC3)nn12 (stereo not drawn) [Example 68]
4.56 | CCC(C)Nc1c(-c2cc(Cl)sc2Cl)c(Cl)nc2nc(C3CC3)nn12 (stereo not drawn) [Example 69]
4.82 | Clc1cc(-c2c(Cl)nc3nc(C4CC4)nn3c2NC2CCCC2)c(Cl)s1 [Example 70]
3.07 | CC(C)Nc1c(-c2ccsc2)c(Cl)nc2nc(C3CC3)nn12 [Example 72]
2.51 | Clc1nc2nc(C3CC3)nn2c(N2CCOCC2)c1-c1ccsc1 [Example 73]
3.63 | Clc1nc2nc(C3CC3)nn2c(NC2CCCC2)c1-c1ccsc1 [Example 74]
3.81 | C=C(C)CN(C)c1c(-c2ccsc2)c(Cl)nc2nc(C3CC3)nn12 [Example 75]
3.55 | COCCNc1c(-c2cc(Cl)sc2Cl)c(Cl)nc2nc(C3CC3)nn12 [Example 76]
3.85 | CC(C)(C)CNc1c(-c2ccsc2)c(Cl)nc2nc(C3CC3)nn12 [Example 77]
3.41 | CCC(C)Nc1c(-c2ccsc2)c(Cl)nc2nc(C3CC3)nn12 (stereo not drawn) [Example 78]
5.71 | CCCN(CC1CC1)c1c(-c2cc(Cl)sc2Cl)c(Cl)nc2nc(C3CC3)nn12 [Example 79]
5.25 | CC(C)CN(C)c1c(-c2cc(Cl)sc2Cl)c(Cl)nc2nc(C3CC3)nn12 [Example 81]
4.37 | Clc1cc(-c2c(Cl)nc3nc(C4CC4)nn3c2N2CCCC2)c(Cl)s1 [Example 82]
5.14 | Clc1cc(-c2c(Cl)nc3nc(C4CC4)nn3c2N2CCCCCC2)c(Cl)s1 [Example 85]
3.68 | Clc1cc(-c2c(Cl)nc3nc(C4CC4)nn3c2N2CCOCC2)c(Cl)s1 [Example 89]

logP | SMILES
2.94 | CC(Nc1c(-c2scnc2Cl)c(Cl)nc2nc(C3CC3)nn12)C(F)(F)F (stereo not drawn) [Example 91]
3.23 | CC(C)C(C)Nc1c(-c2scnc2Cl)c(Cl)nc2nc(C3CC3)nn12 (stereo not drawn) [Example 92]
3.30 | CC1CCN(c2c(-c3ncncc3Cl)c(Cl)nc3nc(C4CC4)nn23)CC1 [Example 94]
4.07 | CC1CCCCN1c1c(-c2ccsc2)c(Cl)nc2nc(C3CC3)nn12 (stereo not drawn) [Example 95]
3.47 | CC(C)c1nc2nc(Cl)c(-c3ncncc3F)c(NC(C)C(C)(C)C)n2n1 (stereo not drawn) [Example 100]
3.02 | CC(C)c1nc2nc(Cl)c(-c3ncncc3F)c(NC(C)C(C)C)n2n1 (stereo not drawn) [Example 101]
2.78 | CC(C)c1nc2nc(Cl)c(-c3ncncc3F)c(NC(C)C(F)(F)F)n2n1 (stereo not drawn) [Example 102]
3.18 | CC(Nc1c(-c2ncncc2F)c(Cl)nc2nc(C3CC3)nn12)C(C)(C)C (stereo not drawn) [Example 103]
2.79 | CC(C)C(C)Nc1c(-c2ncncc2F)c(Cl)nc2nc(C3CC3)nn12 (stereo not drawn) [Example 104]
2.57 | CC(Nc1c(-c2ncncc2F)c(Cl)nc2nc(C3CC3)nn12)C(F)(F)F (stereo not drawn) [Example 105]
3.02 | CC1CCN(c2c(-c3ncncc3F)c(Cl)nc3nc(C4CC4)nn23)CC1 [Example 106]
2.54 | Cc1nc2nc(Cl)c(-c3ncncc3F)c(NC(C)C(C)(C)C)n2n1 (stereo not drawn) [Example 107]
2.21 | Cc1nc2nc(Cl)c(-c3ncncc3F)c(NC(C)C(C)C)n2n1 (stereo not drawn) [Example 108]
2.03 | Cc1nc2nc(Cl)c(-c3ncncc3F)c(NC(C)C(F)(F)F)n2n1 (stereo not drawn) [Example 109]
3.95 | CC(C)c1nc2nc(Cl)c(-c3ncc(C(F)(F)F)cc3Cl)c(NC(C)C(F)(F)F)n2n1 (stereo not drawn) [Example 111]
4.32 | CC(C)c1nc2nc(Cl)c(-c3ncc(C(F)(F)F)cc3Cl)c(NC(C)C(C)C)n2n1 (stereo not drawn) [Example 112]

Same assay, conditions: Table 2, precursors of formula (II)

logP | SMILES
2.23 | Clc1cncnc1-c1c(Cl)nc2nc(C3CC3)nn2c1Cl [Example 116]
2.10 | Cc1nc2nc(Cl)c(-c3cncnc3C(F)(F)F)c(Cl)n2n1 [Example 117]
1.88 | Clc1nc2nc(C3CC3)nn2c(Cl)c1-c1ccccn1 [Example 118]
2.91 | O=[N+]([O-])c1cccc(-c2c(Cl)nc3nc(C4CC4)nn3c2Cl)n1 [Example 119]
1.68 | Cc1nc2nc(Cl)c(-c3ncccc3[N+](=O)[O-])c(Cl)n2n1 [Example 120]

Same assay, conditions: Table 3, precursors of formula (IV)

logP | SMILES
−0.03 | Cc1nc2nc(O)c(-c3ncccc3C(F)(F)F)c(O)n2n1 [Example 126]
−0.07 | Oc1nc2nc(C3CC3)nn2c(O)c1-c1ncncc1Cl [Example 127]
